Test results taken from patent US12552770B2, “Compounds for treating respiratory disease” (TMEM16A Limited, priority 2020, dated 2026).
pEC50: −log10 of the molar value.

Biological target: T1, human TMEM16A (TMEM16Aabc variant) (Homo sapiens, UniProt Q5XXA6, DEL476-501)
T1 sequence (Q5XXA6 with tags, fused parts or gaps isoform Q5XXA6-5 DEL539-564): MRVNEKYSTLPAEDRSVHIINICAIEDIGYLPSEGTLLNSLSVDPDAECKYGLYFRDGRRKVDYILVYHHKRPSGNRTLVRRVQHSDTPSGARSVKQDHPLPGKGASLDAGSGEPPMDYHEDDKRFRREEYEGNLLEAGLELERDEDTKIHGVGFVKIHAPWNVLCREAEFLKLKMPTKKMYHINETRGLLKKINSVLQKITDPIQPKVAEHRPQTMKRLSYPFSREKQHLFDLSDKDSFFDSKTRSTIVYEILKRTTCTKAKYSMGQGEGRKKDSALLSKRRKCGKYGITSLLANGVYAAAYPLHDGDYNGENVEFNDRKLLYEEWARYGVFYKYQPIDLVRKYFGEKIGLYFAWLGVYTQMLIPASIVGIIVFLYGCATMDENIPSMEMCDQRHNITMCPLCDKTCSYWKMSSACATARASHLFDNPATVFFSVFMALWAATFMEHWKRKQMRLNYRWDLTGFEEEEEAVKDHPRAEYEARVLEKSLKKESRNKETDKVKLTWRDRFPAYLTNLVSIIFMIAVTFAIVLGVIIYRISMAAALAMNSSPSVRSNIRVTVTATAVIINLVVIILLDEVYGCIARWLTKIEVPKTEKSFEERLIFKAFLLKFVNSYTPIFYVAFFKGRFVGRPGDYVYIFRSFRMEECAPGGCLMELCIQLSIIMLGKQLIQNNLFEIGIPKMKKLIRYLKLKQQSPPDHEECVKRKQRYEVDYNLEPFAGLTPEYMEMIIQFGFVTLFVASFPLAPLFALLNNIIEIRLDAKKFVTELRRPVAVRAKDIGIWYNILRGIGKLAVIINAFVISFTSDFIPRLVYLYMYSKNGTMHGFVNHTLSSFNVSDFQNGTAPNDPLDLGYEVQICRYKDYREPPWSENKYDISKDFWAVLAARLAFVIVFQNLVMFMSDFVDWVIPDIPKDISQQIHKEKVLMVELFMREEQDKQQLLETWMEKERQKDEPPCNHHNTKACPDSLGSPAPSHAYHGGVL
Experiment: Automated whole-cell patch clamp (Qpatch) TMEM16A potentiator assay in recombinant cells
Assay type: cell-based
Conditions: FRT cells stably expressing human TMEM16A, intracellular calcium at EC20; for % Potentiation @ 3.33 μM Avg: 3.33 μM solution of test compound, percentage increase of baseline TMEM16A current, peak current at +70 mV; for pEC50: calculated from cumulative concentration response curve, whole-cell patch clamp
Method: Automated Whole-Cell Patch Clamp Assay to Detect TMEM16A Activity in Recombinant Cells
Cell Culture and Preparation
Fisher rat thyroid (FRT) cells stably expressing human TMEM16A (TMEM16Aabc variant; Dr Luis Galietta, Insituto Giannina, Italy) were cultured in T-75 flasks in Hams F-12 media with Coon's modification (Sigma) supplemented with 10% (v/v) foetal bovine serum, penicillin-streptomycin (10,000 U/mL/10000 μg/mL), G-418 (750 μg/mL), L-glutamine (2 mM) and sodium bicarbonate solution (7.5% v/v). At ˜90% confluence cells were harvested for experiments by detachment with a 2:1 (v/v) mixture of Detachin (BMS Biotechnology) and 0.25% (w/v) trypsin-EDTA. Cells were diluted to a density of 3.5-4.5×10^6 cells/mL with media consisting of CHO-S-SFM II (Sigma), 25 mM HEPES (Sigma) and Soy bean trypsin inhibitor (Sigma).
Whole-Cell Patch Clamp Recording
FRT-TMEM16A cells were whole-cell patch clamped using an automated planar patch clamp system (Qpatch, Sophion). Briefly, once high resistance (GOhm) seals were established between the cells and the planar recording array the patch was ruptured using suction pulses to establish the whole-cell recording configuration of the patch clamp technique. The assay employed the following solutions (all reagents Sigma):
Intracellular solution (mM): N-methyl-D-glucamine 130, CaCl2 18.2, MgCl2 1, HEPES 10, EGTA 10, BAPTA 20, Mg-ATP 2, pH 7.25, 325 mOsm with sucrose.
Extracellular solution (mM): N-methyl-D-glucamine 130, CaCl2 2, MgCl2 1, HEPES 10, pH 7.3, 320 mOsm with sucrose.
The intracellular solution buffers intracellular calcium at levels required to give ˜20% activation of the maximal TMEM16A mediated current (EC20 for calcium ions). Cells were voltage clamped at a holding potential of −70 mV and a combined voltage step (to +70 mV)/ramp (−90 my to +90 mV) was applied at 0.05 Hz. After a period of current stabilisation test compounds, solubilised in 100% (v/v) DMSO and subsequently diluted into extracellular solution, were applied to generate a cumulative concentration response curve. Each concentration of test compound was incubated for 5 minutes before addition of the next concentration. After the final concentration was tested a supramaximal concentration of either a known active positive modulator or the TMEM16A inhibitor, CaCCinhA01 (Del La Fuente et al, 2008) was added to define the upper and lower limits of the assay.
Compound activity was quantified by measuring the increase in current upon compound addition and expressing this as a percentage increase of baseline TMEM16A current level. Percentage increases in current were determined for each concentration and the data plotted as a function of concentration using either the Qpatch software or Graphpad Prism v6.05 providing the concentration which gave 50% of its maximal effect (EC50) and maximum efficacy (percentage of baseline increase).
In FIG. 1, IBL equals baseline current, I[#1] equals the peak current during test compound concentration 1 incubation period and so on.
Peak TMEM16A current at +70 mV was plotted as a function of time over the assay period. Baseline current (IBL) was measured after a period of stabilisation. The increase in current for each compound addition was determined by taking the peak current during the incubation period and subtracting the current from the previous recording period and then expressing this as a percentage of the baseline current. For test compound concentration 1 in FIG. 1 this is:
For each additional concentration tested the increase in current was determined by subtracting the current from the previous incubation period and normalising the baseline value—for test concentration 2 in FIG. 1 this is:
The values for each test concentration were plotted as a cumulative function of concentration e.g. for test concentration two this would be the sum of the peak changes measured during concentration one plus concentration two.

SMILES | % Potentiation @ 3.33 μM Avg | pEC50
CC1(c2nc3ccc(C(=O)NCC4CCCCCC4)cc3[nH]2)CCC1 [Example 28, N-(Cycloheptylmethyl)-2-(1-methylcyclobutyl)-3H-benzimidazole-5-carboxamide] | 82% | 6.21
CC(C)(CO)c1cc(F)c(Cc2nc3cc(C(=O)NCC4(C(F)(F)F)CC4)ccc3[nH]2)cc1O [Example 29, 2-[[2-Fluoro-5-hydroxy-4-(2-hydroxy-1,1-dimethyl-ethyl)phenyl]methyl]-N-[[1-(trifluoromethyl)cyclopropyl]methyl]-1H-benzimidazole-5-carboxamide] | 183% | 6.30
CC(C)(CO)c1cc(F)c(CNC(=O)c2ccc3[nH]c(C4(C(F)(F)F)CC4)nc3c2)cc1O [Example 30, N-[[2-Fluoro-5-hydroxy-4-(2-hydroxy-1,1-dimethyl-ethyl)phenyl]methyl]-2-[1-(trifluoromethyl)cyclopropyl]-1H-benzimidazole-5-carboxamide] | 66% | –
CC(C)(O)c1cc(F)c(Cc2nc3cc(C(=O)NCCC(F)(F)F)ccc3[nH]2)cc1O [Example 31, 2-[[2-Fluoro-5-hydroxy-4-(1-hydroxy-1-methyl-ethyl)phenyl]methyl]-N-(3,3,3-trifluoropropyl)-1H-benzimidazole-5-carboxamide] | 158% | –
CC(C)(O)c1cc(F)c(Cc2nc3cc(C(=O)NC4(C(F)(F)F)CC4)ccc3[nH]2)cc1O [Example 31.1, 2-[[2-Fluoro-5-hydroxy-4-(1-hydroxy-1-methyl-ethyl)phenyl]methyl]-N-[1-(trifluoromethyl)cyclopropyl]-1H-benzimidazole-5-carboxamide] | 108% | –
CC(C)(CO)c1cc(F)cc(Cc2nc3cc(C(=O)NCC4(C(F)(F)F)CC4)ccc3[nH]2)c1O [Example 32, 2-[[5-Fluoro-2-hydroxy-3-(2-hydroxy-1,1-dimethyl-ethyl)phenyl]methyl]-N-[[1-(trifluoromethyl)cyclopropyl]methyl]-1H-benzimidazole-5-carboxamide] | 56.6% | 6.64
